The source of these data is patent US20070105789A1, “Combinatorial chemotherapy treatment using Na+/K+ ATPase inhibitors” (priority 2004, published 2007).

Read-outs that look alike come from different tables or passages of the source. A value given as a limit tells only on which side of the number the result lay.

The target in data set [1] is Na+/K+-ATPase α peptide isoforms. To be noted: read-out: Kd of ouabain for the four α peptide isoforms; almost all mammalian species; cited from earlier work.
The subject of data set [2] is A549 human non-small-cell-lung carcinoma. The experiment in a line: A549 human non-small-cell-lung carcinoma xenograft in nude mice. To be noted: for % TGI: A549, Day 38; for Final Tumor weight Day 38 (Mean): A549, tumor weight in mg; for Final Tumor weight Day 38 (Mean) / % Weight Change at Day 38: BNC-1 20 mg/ml s.c. pump, Carboplatin 100 mg/kg ip; for % Weight Change at Day 38: A549 xenograft mice; for signs of tumor at the end of the experiment: A549 xenograft, 8 animals per group. The source says:
(§1) Female nude mice (nu/nu) between 5 and 6 weeks of age weighing approximately 20 g were implanted subcutaneously (s.c.) by trocar with fragments of human tumors harvested from s.c. grown tumors in nude mice hosts. […] Each group contains 8-10 mice, each of which was ear tagged and followed throughout the experiment.
(§2) The administration of drugs or controls began the day the animals were pair-matched (Day 1). […] Mice were weighed and tumor measurements were obtained using calipers twice weekly, starting Day 1. These tumor measurements were converted to mg tumor weight by standard formula, (W^2×L)/2. The experiment is terminated when the control group tumor size reached an average of about 1 gram. Upon termination, the mice were weighed, sacrificed and their tumors excised. The tumors were weighed and the mean tumor weight per group was calculated.
Carboplatin (qldxl) was injected at 100 mg/kg (Carb).
(Xenograft models place foreign cells or tissue in a host animal.)

Data set [3] relates to several different cancer cell lines. Kind of data set: proliferation of cancer cell lines (ouabain IC50). It is filed as cell-based. The note with it: read-out: IC50 across several different cancer cell lines.
Data set [4] deals with Na+/K+-ATPase. The note with it: Erdmann E 1978; cited from earlier work.
The next data set relates to cats. To be noted: cited from earlier work.
The test system of data set [5] is panel of 10 cancer cell lines. Kind of data set: cytotoxicity against a panel of 10 cancer cell lines. It is filed as cell-based. To be noted: read-out: median IC50.
The subject of a further data set is A549(ROS) Sentinel Line. Kind of data set: ROS levels by FACS in A549(ROS) cells. It is filed as cell-based, human. The note with it: normoxia, 4 hrs. Here is the method: Thirty minutes prior to the termination of incubation period, 2,7-dichlorofluorescin diacetate (CFH-DA, […]) was added to the cells and incubated for the last 30 min at 37° C. The ROS levels were determined by FACS analysis.
A general note: A flow cytometer gives signals particle by particle.

Data set [6] can be described thus: human pharmacokinetics (literature). The note with it: species not stated.
For data set [7], the system named is Caki-1 human renal cancer xenograft. It is filed as in vivo, nude mice. The note with it: for % TGI: Caki-1, Day 22; for % TGI / Final Tumor weight Day 22 (Mean): BNC-1 20 mg/ml s.c. pump, Cytoxan 300 or 100 ip; for Final Tumor weight Day 22 (Mean): tumor weight in mg.
Description: as §1, §2

The next data set concerns VEGF. The experiment in a line: VEGF secretion in tumor cells. To be noted: FIG. 8. Format: cell-based.
The conditions of data set [8]: cited from earlier work.
The subject of data set [9] is Panc-1 human pancreatic xenograft. The experiment in a line: Panc-1 human pancreatic tumor xenograft in nude mice. Format: in vivo. The note with it: for Final Tumor weight Day 25 (Mean): BNC-1 20 mg/ml s.c. osmotic pump, tumor weight in mg.
Description: as §1, §2
(§3) The control animals received pumps containing vehicle (50% DMSO in DMEM). The mice treated with standard chemotherapy agent received intra-peritoneal injections of Gemcitabine at 40 mg/kg every 3 days for 4 treatments (q3d×4). Each data point represent average tumor weight (n=8) and error bars indicate SEM.
as §3

Data set [10] deals with T1, Na+/K+-ATPase (Canis lupus familiaris, UniProt P50997).
T1 construct: enzyme preparation from dog kidney (Sigma); purchased Sigma; host or cells: dog kidney tissue
The experiment in a line: Na+/K+-ATPase inhibition. Format: biochemical, dog. Here is the method:
(§4) Anti-prolerafitive IC50 values were determined by MTS assay using an A549 cell line. Na^+/K^+-ATPase inhibition IC50 values were obtained using enzyme preparation from dog kidney (Sigma).

In another data set the test system is A549 cell line. Kind of data set: anti-proliferation MTS assay in A549 cell line. To be noted: Homo sapiens. It is filed as cell-based. The protocol:
as §4
For orientation: Formazan colour is commonly taken as a measure of viable cells.

Another data set has as its system HIF-1α. The experiment in a line: Western blot using anti-HIF-1α antibody (Example XVI). It is filed as cell-based. The note with it: 1 μM.
A further data set relates to A549 Sentinel Line. The experiment in a line: Sentinel Line reporter assay (beta-gal, FACS). Format: cell-based, human. The note with it: agent alone, 40 hrs, FACS. Here is the method: The expression level of beta-galactosidase gene in sentinel lines was determined by using a fluorescent substrate fluorescein di-B-D-Galactopyranside (FDG, Marker Gene Tech, #M0250) introduced into cells by hypotonic shock. Cleavage by beta-galactosidase results in the production of free fluorescein, which is unable to cross the plasma membrane and is trapped inside the beta-gal positive cells. Briefly, the cells to be analyzed are trypsinized, and resuspended in PBS containing 2 mM FDG (diluted from a 10 mM stock prepared in 8:1:1 mixture of water: ethanol: DMSO). The cells were then shocked for 4 minutes at 37° C. and transferred to FACS tubes containing cold 1×PBS on ice. Samples were kept on ice for 30 minutes and analyzed by FACS in FLI channel.
Sentinel Line cells with beta-galactosidase reporter gene were plated at 1×10^5 cells/10 cm dish. […] After 40 hrs, the cells were trypsinized and the expression level of reporter gene was determined by FDG loading.
The reporter activity was measured by FACS analysis.

The next data set concerns rats. To be noted: adult; cited from earlier work.
Where [11] appears, read: Panc-1, Gemcitabine 40 mg/kg q3d×4.

As a reminder, the Kd is the equilibrium constant for the complex coming apart. In general, IC50 refers to the concentration that gives 50% inhibition. Turning to `C[C@@H]1O[C@@H](O[C@H]2C[C@@H](O)[C@]3(CO)[C@H]4[C@H](O)C[C@]5(C)[C@@H](C6=CC(=O)OC6)CC[C@]5(O)[C@@H]4CC[C@]3(O)C2)[C@H](O)[C@H](O)[C@H]1O` [BNC-1, ouabain], the dissociation constant (Kd) in [1] is ≤ 1 nM. Moreover, in data set [2], the “% TGI” value is 100.00%, the “Final Tumor weight Day 38 (Mean)” value was 0.0, the “% Weight Change at Day 38” value is reported as 21% and the “signs of tumor at the end of the experiment” value was “none of the experimental animals showed any signs of tumor”. Also, the IC50 in [3] is 15 to 600 nM. Besides, the “order of Na+/K+-ATPase-inhibition” value in the data set on Na+/K+-ATPase [4] is recorded as “Ouabain<Digoxin<Proscillaridin”. In the data set with cats, the intravenous toxicity is 0.133 mg/kg and the “toxicity on duodenal administration” value was 5.3 mg/kg. Further, the “toxic serum concentration at day 1 (serum level at MTD)” value (mice) is on record as “about 50±21 ng/ml”. Moreover, under “steady state, xenograft nude mouse”, the “therapeutic serum concentration required to achieve >60% TGI” value was “about 20±15 ng/ml”. In data set [5], the IC50 turned out to be 78 nM. In the data set with A549(ROS) Sentinel Line, the ROS production result was “induces ROS production”. The max. plasma concentration entry in data set [6] is given as “about 0.03 μg/mL”. For the same compound, the “% TGI” value in data set [7] is given as 81.45%. For the same compound, the “Final Tumor weight Day 22 (Mean)” value in data set [7] (Caki-1) stood at 314.9. In addition, the “secretion of VEGF in tumor cells” value in the data set on VEGF is recorded as “directly or indirectly inhibits”. For the same compound, in data set [8] (according to the literature), the “plasma half-life in human” value was “about 20 hours” and the “plasma half-life in human, range” value was 5 to 50 h. Moreover, in data set [9] (Panc-1, Day 25, BNC-1 20 mg/ml s.c. pump, Gemcitabine 40 mg/kg q3d×4), the “% TGI” value came out at 82.15%. The “Final Tumor weight Day 25 (Mean)” value in data set [9] (setting [11]) is on record as 200.

In the case of `CC(=O)OC1C=C2CCC3C4=CC[C@H](c5ccc(=O)oc5)[C@@]4(C)CCC3[C@@]2(C)CC1` (some centres unmarked) [BNC-147], the 50% inhibitory concentration (IC50) on Na+/K+-ATPase [10] was found to be 65000 nM; in the data set with A549 cell line it was 11500 nM.

On to `C[C@@H]1OC(OC2C=C3CCC4C5=CC[C@H](c6ccc(=O)oc6)[C@@]5(C)CCC4[C@@]3(C)CC2)[C@H](O)[C@H](O)[C@H]1O` (some centres unmarked) [BNC-151], for which the IC50 is 1380 nM against Na+/K+-ATPase [10] and 260 nM in the data set with A549 cell line. Further, in the data set with HIF-1α, the HIF-1α expression result was “Significant inhibition”.

For `N.N.O=C([O-])C1(C(=O)[O-])CCC1.[Pt+2]` [Carboplatin], in data set [2], the “% TGI” value came to 39.50%, the “Final Tumor weight Day 38 (Mean)” value is given as 509.75, the “% Weight Change at Day 38” value came out at 16% and the “signs of tumor at the end of the experiment” value is “developed tumors of significant sizes”. For the same compound, in the data set with A549 Sentinel Line, the “reporter activity in Sentinel Lines” value is “increases in cell death and reporter activity”.

For orientation: TGI means how far tumour growth fell short of that in controls. High values mean much slowing of growth, low ones little slowing of growth. With `O=P1(N(CCCl)CCCl)NCCCO1` (centres unmarked) [Cytoxan], the “% TGI” value in [7] was 94.48%; in data set [7] (listed as Cytoxan100), 54.70%. Moreover, the “Final Tumor weight Day 22 (Mean)” value came out at 93.7 in [7] (Caki-1) and 769 in [7] (Caki-1, listed as Cytoxan100). This compound also displayed a TGI in data set [7] (Caki-1, Cytoxan 100 mg/kg alone, positive control) of 92%.

As to `C[C@H]1O[C@@H](O[C@H]2[C@@H](O)C[C@H](O[C@H]3[C@@H](O)C[C@H](O[C@H]4CC[C@@]5(C)[C@H](CC[C@@H]6[C@@H]5CC[C@]5(C)[C@@H](C7=CC(=O)OC7)CC[C@]65O)C4)O[C@@H]3C)O[C@@H]2C)C[C@H](O)[C@@H]1O` [Digitoxin], the LD50 p.o. with rats is 0.1 mg/kg.

`C[C@H]1O[C@@H](O[C@H]2[C@@H](O)C[C@H](O[C@H]3[C@@H](O)C[C@H](O[C@H]4CC[C@@]5(C)[C@H](CC[C@@H]6[C@@H]5C[C@@H](O)[C@]5(C)[C@@H](C7=CC(=O)OC7)CC[C@]65O)C4)O[C@@H]3C)O[C@@H]2C)C[C@H](O)[C@@H]1O` [Digoxin]: the “order of Na+/K+-ATPase-inhibition” value with Na+/K+-ATPase [4] is “Ouabain<Digoxin<Proscillaridin”. The half-inhibitory concentration (IC50) in data set [5] was determined as 37 nM. Besides, the “Volume-of-Distribution (VD)” value in data set [8] (in vivo) is 650 L.

In the case of `Nc1ccn([C@@H]2O[C@H](CO)[C@@H](O)C2(F)F)c(=O)n1` [Gemcitabine, gemcitabine], the “Final Tumor weight Day 25 (Mean)” value in data set [9] (setting [11]) was determined as 701.3. The compound further came in with a TGI in [9] (Panc-1, BNC-4 15 mg/ml s.c. pump, Gemcitabine 40 mg/kg q3d×4) of 65%. The “% TGI” value in data set [9] (mouse, in vivo) is 37.40%. In addition, the “reporter activity in Sentinel Lines” value with A549 Sentinel Line was “elevated reporter activity”.

Regarding `COc1cc2ncnc(Nc3ccc(F)c(Cl)c3)c2cc1OCCCN1CCOCC1` [Iressa], in the data set with A549 Sentinel Line, the “reporter activity in Sentinel Lines” value was “reduction in reporter activity”.

Take `O=C1c2c(O)ccc(O)c2C(=O)c2c(NCCNCCO)ccc(NCCNCCO)c21` [mitoxanthrone, mitoxantrone]: in the data set on A549 Sentinel Line, the “reporter activity in Sentinel Lines” value is “increases in cell death and reporter activity”.

For the compound `CC(=O)O[C@H]1C(=O)[C@@]2(C)[C@H]([C@H](OC(=O)c3ccccc3)[C@]3(O)C[C@H](OC(=O)[C@H](O)[C@@H](NC(=O)c4ccccc4)c4ccccc4)C(C)=C1C3(C)C)[C@]1(OC(C)=O)CO[C@@H]1C[C@@H]2O` [paclitaxel], the “reporter activity in Sentinel Lines” value in the data set on A549 Sentinel Line was “increases in cell death and reporter activity”.
